Laboratory results published in patent US11186576B2, “Pyrazolo[1,5-A][1,3,5]triazine and pyrazolo[1,5-A]pyrimidine derivatives as CDK inhibitors” (Aurigene Discovery Technologies Limited, priority 2015, dated 2021).

Columns and labels:
[1] = target: CDK7/CycH/MNAT1 (Homo sapiens (Human), UniProt P50613); assay: Biochemical assay for CDK7 (TR-FRET kinase assay); conditions: 60 min pre-incubation, 1 mM ATP; for inhibition at 10 µM: 10 μM compound, read-out: % inhibition @ 10 μM; for IC50: read-out: IC50
In short: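 CDK7/CycH/MNAT1 (5 nM) was preincubated with compound for 60 min at room temperature, then reacted for 60 min with 100 nM ULight-MBP and 1 mM ATP in 1% DMSO. Irreversibility was probed with 20, 60 and 180 min preincubations.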

[2] = test system: RNA polymerase II CTD phosphorylation (MDA-MB-231/NCI-H358 cells); assay: Inhibition of RNA polymerase II CTD phosphorylation in cell western assay; type: cell-based; conditions: 4 hours incubation, phospho RNA Pol II Ser-5 or Ser-2
In short: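 MDA-MB-231 or NCI-H358 cells treated 4 h at 37 °C with 3-fold dilutions from 10 μM, then fixed and immunostained for phospho-Ser5 or phospho-Ser2 RNA Pol II CTD. Europium-labelled secondaries give the time-resolved fluorescence read-out, normalised to Hoechst; EC50 reported in binned ranges.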

Chain of CDK7/CycH/MNAT1 (P50613 whole entry): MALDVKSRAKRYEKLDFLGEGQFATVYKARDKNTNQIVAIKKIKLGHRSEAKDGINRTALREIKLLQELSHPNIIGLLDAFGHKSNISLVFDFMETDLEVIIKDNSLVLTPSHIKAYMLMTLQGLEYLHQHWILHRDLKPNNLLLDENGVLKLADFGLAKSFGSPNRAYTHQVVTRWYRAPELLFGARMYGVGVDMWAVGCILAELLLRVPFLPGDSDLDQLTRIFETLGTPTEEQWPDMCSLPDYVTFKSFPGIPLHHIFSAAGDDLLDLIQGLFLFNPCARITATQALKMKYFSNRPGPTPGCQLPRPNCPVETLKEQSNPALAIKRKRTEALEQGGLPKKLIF
Chain of CDK7/CycH/MNAT1 (P51946 whole entry partner): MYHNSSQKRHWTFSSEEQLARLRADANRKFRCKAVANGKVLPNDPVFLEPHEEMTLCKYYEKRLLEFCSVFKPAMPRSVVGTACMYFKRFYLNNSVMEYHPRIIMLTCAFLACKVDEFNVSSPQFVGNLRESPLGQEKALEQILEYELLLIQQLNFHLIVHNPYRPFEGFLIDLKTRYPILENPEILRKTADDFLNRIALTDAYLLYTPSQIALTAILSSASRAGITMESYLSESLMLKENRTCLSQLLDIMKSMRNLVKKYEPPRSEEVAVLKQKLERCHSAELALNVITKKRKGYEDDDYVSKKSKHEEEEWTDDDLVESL
Chain of CDK7/CycH/MNAT1 (P51948 whole entry partner): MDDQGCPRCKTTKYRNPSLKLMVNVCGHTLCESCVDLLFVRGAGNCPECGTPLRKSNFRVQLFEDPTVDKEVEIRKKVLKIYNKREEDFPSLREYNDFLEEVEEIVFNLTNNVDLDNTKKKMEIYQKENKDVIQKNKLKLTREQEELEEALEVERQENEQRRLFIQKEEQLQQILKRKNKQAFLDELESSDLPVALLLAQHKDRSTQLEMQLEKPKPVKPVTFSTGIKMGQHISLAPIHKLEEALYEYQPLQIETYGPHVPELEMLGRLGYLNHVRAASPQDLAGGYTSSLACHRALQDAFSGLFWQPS

Structure (SMILES)	inhibition at 10 µM [1] [%]	IC50 [1] [µM]	EC50 [2] [µM]
C=CC(=O)N1CCC(C(=O)Nc2cccc(CNc3nc(OCCCCN)nc4c(C(C)C)cnn34)c2)CC1 [Compound 107, 1-acryloyl-N-(3-(((2-(4-aminobutoxy)-8-isopropylpyrazolo[1,5-a][1,3,5]triazin-4-yl)amino)methyl)phenyl)piperidine-4-carboxamide]	95	< 0.3	1 to 10
CC(C)c1cnn2c(NCc3ccc(F)c(NC(=O)[C@H]4CC[C@@H](NC(=O)/C=C/CN(C)C)CC4)c3)nc(OC3CCN(C)CC3)nc12 [Compound 124, (1,4-cis)-4-((E)-4-(dimethylamino)but-2-enamido)-N-(2-fluoro-5-(((8-isopropyl-2-((1-methylpiperidin-4-yl)oxy)pyrazolo[1,5-a][1,3,5]triazin-4-yl)amino)methyl)phenyl)cyclohexane-1-carboxamide]	94	< 0.3	> 10
C=CC(=O)Nc1ccc(C(=O)Nc2cccc(Nc3nc(OC4CCN(C)CC4)nc4c(C(C)C)cnn34)c2)cc1 [Compound 125, 4-acrylamido-N-(3-((8-isopropyl-2-((1-methylpiperidin-4-yl)oxy)pyrazolo[1,5-a][1,3,5]triazin-4-yl)amino)phenyl)benzamide]	86	< 0.3	≤ 1
C=CC(=O)N1CCC(NC(=O)c2cccc(Nc3nc(OC4CCN(C)CC4)nc4c(C(C)C)cnn34)c2)CC1 [Compound 128, N-(1-acryloylpiperidin-4-yl)-3-((8-isopropyl-2-((1-methylpiperidin-4-yl)oxy)pyrazolo[1,5-a][1,3,5]triazin-4-yl)amino)benzamide]	93	< 0.3	1 to 10
C=CC(=O)N1CCCC(NC(=O)c2cccc(Nc3nc(OC4CCN(C)CC4)nc4c(C(C)C)cnn34)c2)C1 (centres unmarked) [Compound 129, N-(1-acryloylpiperidin-3-yl)-3-((8-isopropyl-2-((1-methylpiperidin-4-yl)oxy)pyrazolo[1,5-a][1,3,5]triazin-4-yl)amino)benzamide]	94	< 0.3	1 to 10
CC(C)c1cnn2c(Nc3cccc(NC(=O)C4CCC(NC(=O)/C=C/CN(C)C)CC4)c3)nc(OC3CCN(C)CC3)nc12 (centres unmarked) [Compound 131, (1s,4s)-4-((E)-4-(dimethylamino)but-2-enamido)-N-(3-((8-isopropyl-2-((1-methylpiperidin-4-yl)oxy)pyrazolo[1,5-a][1,3,5]triazin-4-yl)amino)phenyl)cyclohexane-1-carboxamide]	86	0.3 to 1	> 10
CC(C)c1cnn2c(Nc3cccc(C(=O)NC4CCN(C(=O)/C=C/CN(C)C)CC4)c3)nc(OC3CCN(C)CC3)nc12 [Compound 134, (E)-N-(1-(4-(dimethylamino)but-2-enoyl)piperidin-4-yl)-3-((8-isopropyl-2-((1-methylpiperidin-4-yl)oxy)pyrazolo[1,5-a][1,3,5]triazin-4-yl)amino)benzamide]	97	< 0.3	1 to 10

Now from value to molecule:

inhibition at 10 µM [1] [%]	IC50 [1] [µM]	EC50 [2] [µM]	Structure (SMILES)
92	< 0.3	> 10	C=CC(=O)N[C@H]1CC[C@@H](C(=O)Nc2cccc(CNc3nc(OC4CCN(C)CC4)nc4c(C5CC5)cnn34)c2)CC1 [Compound 105, (1,4-cis)-4-acrylamido-N-(3-(((8-cyclopropyl-2-((1-methylpiperidin-4-yl)oxy)pyrazolo[1,5-a][1,3,5]triazin-4-yl)amino)methyl)phenyl)cyclohexane-1-carboxamide]
91	> 1	1 to 10	C=CC(=O)N1CCC(C(=O)Nc2cccc(CNc3nc(OC4CCNCC4)nc4c(C(C)C)cnn34)c2)CC1 [Compound 106, 1-acryloyl-N-(3-(((8-isopropyl-2-(piperidin-4-yloxy)pyrazolo[1,5-a][1,3,5]triazin-4-yl)amino)methyl)phenyl)piperidine-4-carboxamide]
99	< 0.3	1 to 10	C=CC(=O)N1CCC(C(=O)Nc2cccc(CNc3nc(OC4CCN(C)CC4)nc4c(C(C)C)cnn34)c2)C1 (centres unmarked) [Compound 108, 1-acryloyl-N-(3-(((8-isopropyl-2-((1-methylpiperidin-4-yl)oxy)pyrazolo[1,5-a][1,3,5]triazin-4-yl)amino)methyl)phenyl)pyrrolidine-3-carboxamide]
95	< 0.3	1 to 10	C=CC(=O)N1CCC(C(=O)Nc2cccc(CNc3nc(OC4CCN(C)CC4)nc4c(C(C)C)cnn34)c2)CC1 [Compound 111, 1-acryloyl-N-(3-(((8-isopropyl-2-((1-methylpiperidin-4-yl)oxy)pyrazolo[1,5-a][1,3,5]triazin-4-yl)amino)methyl)phenyl)piperidine-4-carboxamide]
97	< 0.3	1 to 10	C=CC(=O)NC1CCCC(C(=O)Nc2cccc(CNc3nc(OC4CCN(C)CC4)nc4c(C(C)C)cnn34)c2)C1 (centres unmarked) [Compound 114, 3-acrylamido-N-(3-(((8-isopropyl-2-((1-methylpiperidin-4-yl)oxy)pyrazolo[1,5-a][1,3,5]triazin-4-yl)amino)methyl)phenyl)cyclohexane-1-carboxamide]
94	< 0.3	≤ 1	C=CC(=O)N[C@H]1CC[C@@H](C(=O)Nc2cccc(CNc3nc(OC4CCN(C)CC4)nc4c(C(C)C)cnn34)c2)CC1 [Compound 115, (1,4-cis)-4-acrylamido-N-(3-(((8-isopropyl-2-((1-methylpiperidin-4-yl)oxy)pyrazolo[1,5-a][1,3,5]triazin-4-yl)amino)methyl)phenyl)cyclohexane-1-carboxamide]
92	< 0.3	1 to 10	C=CC(=O)N1CCCC(C(=O)Nc2cccc(CNc3nc(OC4CCN(C)CC4)nc4c(C(C)C)cnn34)c2)C1 (centres unmarked) [Compound 116, 1-acryloyl-N-(3-(((8-isopropyl-2-((1-methylpiperidin-4-yl)oxy)pyrazolo[1,5-a][1,3,5]triazin-4-yl)amino)methyl)phenyl)piperidine-3-carboxamide]
95	< 0.3	1 to 10	C=CC(=O)N1CCCC(C(=O)Nc2cc(CNc3nc(OC4CCN(C)CC4)nc4c(C(C)C)cnn34)ccc2F)C1 (centres unmarked) [Compound 117, 1-acryloyl-N-(2-fluoro-5-(((8-isopropyl-2-((1-methylpiperidin-4-yl)oxy)pyrazolo[1,5-a][1,3,5]triazin-4-yl)amino)methyl)phenyl)piperidine-3-carboxamide]
99	< 0.3	> 10	C=CC(=O)N1CCCC(C(=O)Nc2cccc(C(C)Nc3nc(OC4CCN(C)CC4)nc4c(C(C)C)cnn34)c2)C1 (centres unmarked) [Compound 119, 1-acryloyl-N-(3-(1-((8-isopropyl-2-((1-methylpiperidin-4-yl)oxy)pyrazolo[1,5-a][1,3,5]triazin-4-yl)amino)ethyl)phenyl)piperidine-3-carboxamide]
–	< 0.3	> 10	CC(C)c1cnn2c(NCc3cccc(NC(=O)C4CCCN(C(=O)/C=C/CN(C)C)C4)c3)nc(OC3CCN(C)CC3)nc12 (centres unmarked) [Compound 122, (E)-1-(4-(dimethylamino)but-2-enoyl)-N-(3-(((8-isopropyl-2-((1-methyl-piperidin-4-yl)oxy)pyrazolo[1,5-a][1,3,5]triazin-4-yl)amino)methyl)phenyl)-piperidine-3-carboxamide]
90	< 0.3	> 10	CC(C)c1cnn2c(Nc3cccc(NC(=O)[C@H]4CC[C@H](NC(=O)/C=C/CN(C)C)CC4)c3)nc(OC3CCN(C)CC3)nc12 [Compound 132, (1,4-Trans)-4-((E)-4-(dimethylamino)but-2-enamido)-N-(3-((8-isopropyl-2-((1-methylpiperidin-4-yl)oxy)pyrazolo[1,5-a][1,3,5]triazin-4-yl)amino)phenyl)cyclohexane-1-carboxamide]
